Laboratory results reported in ChEMBL document CHEMBL1130441, “Studies on -lactam antibiotics. Synthesis and antibacterial activity of novel 1-methylcarbapenems related to FR21818: 5-membered ring analogs” (1997).
In brackets after ≈: the same amount, converted by molar mass.

Key:
[1] = molecular target: Dipeptidase 1 (Homo sapiens) (UniProt P16444); test: In vitro rate of hydrolysis by human dehydropeptidase-1 compared to meropenem.
Pseudomonas aeruginosa [2] = test: In vitro antibacterial activity of compound was measured on Pseudomonas aeruginosa IAM 1095; assay type: functional
Escherichia coli = test: In vitro antibacterial activity of compound was measured on Escherichia coli NIHJ JC-2; assay type: functional
Proteus vulgaris = test: In vitro antibacterial activity of compound was measured on Proteus vulgaris IAM 1025; assay type: functional
Staphylococcus aureus [3] = test: In vitro antibacterial activity of compound was measured on Staphylococcus aureus 209P JC-1; assay type: functional
Staphylococcus aureus [4] = test: In vitro antibacterial activity of compound was measured on Staphylococcus aureus 3004(MRSA); assay type: functional
Pseudomonas aeruginosa [5] = test: In vitro antibacterial activity of compound was measured on Pseudomonas aeruginosa 26; assay type: functional
Mus musculus [6] = test: Protective activity of compound was measured against lethal systemic infection by Staphylococcus aureus 8008 (MRSA) in ICR mice at 1 hr after subcutaneous administration; assay type: functional; conditions: sc
Mus musculus [7] = test: Protective activity of compound against lethal systemic infection by Staphylococcus aureus 8008 (MRSA) in ICR mice at 1 hr after sc administration; assay type: functional
Mus musculus [8] = test: Protective activity of compound against lethal systemic infection by Staphylococcus aureus 8008 (MRSA) in ICR mice at 1 hr after subcutaneous administration; assay type: functional; conditions: sc

Chain of Dipeptidase 1 (Homo sapiens) (P16444 whole entry, looked up): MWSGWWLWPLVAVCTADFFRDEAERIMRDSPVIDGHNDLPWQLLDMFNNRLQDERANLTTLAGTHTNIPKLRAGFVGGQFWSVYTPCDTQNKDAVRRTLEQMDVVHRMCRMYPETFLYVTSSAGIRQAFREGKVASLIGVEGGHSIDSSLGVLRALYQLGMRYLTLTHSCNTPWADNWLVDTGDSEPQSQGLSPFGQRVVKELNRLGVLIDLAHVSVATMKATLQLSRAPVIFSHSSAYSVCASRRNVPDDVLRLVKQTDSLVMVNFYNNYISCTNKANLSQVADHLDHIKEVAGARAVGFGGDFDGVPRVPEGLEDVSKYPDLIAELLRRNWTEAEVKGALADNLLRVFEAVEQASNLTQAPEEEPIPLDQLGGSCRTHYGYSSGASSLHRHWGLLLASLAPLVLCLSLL

| DHP-I stability [1] | MIC (Pseudomonas aeruginosa [2]) [µg/mL] | MIC (Escherichia coli) [µg/mL] | MIC (Proteus vulgaris) [µg/mL] | MIC (Staphylococcus aureus [3]) [µg/mL] | MIC (Staphylococcus aureus [4]) [µg/mL] | MIC (Pseudomonas aeruginosa [5]) [µg/mL] | Compound | ED50 (Mus musculus [6]) [mg/kg] | ED50 (Mus musculus [7]) [mg/kg] | ED50 (Mus musculus [8]) [mg/kg] |
| --- | --- | --- | --- | --- | --- | --- | --- | --- | --- | --- |
| 0.3 | 1.56 | 0.1 |  |  |  |  | C[C@@H](O)[C@H]1C(=O)N2C(C(=O)O)=C(S[C@@H]3CN[C@H](Cc4c[n+](C)c(C(N)=O)n4C)C3)[C@H](C)[C@H]12.[Cl-] |  |  |  |
| 0.25 | 3.13 | 0.1 | 1.56 | 0.05 | 12.5 | 0.39 | C[C@@H](O)[C@H]1C(=O)N2C(C(=O)O)=C(S[C@@H]3CN[C@H](Cc4c[n+](CCO)cn4C)C3)[C@H](C)[C@H]12.[Cl-] |  |  |  |
| 0.31 | 3.13 | 0.1 | 0.78 | 0.05 | 12.5 | 0.2 | C[C@@H](O)[C@H]1C(=O)N2C(C(=O)O)=C(S[C@@H]3CN[C@H](Cc4c[n+](CC(N)=O)cn4C)C3)[C@H](C)[C@H]12.[Cl-] |  |  |  |
| 0.29 | 3.13 | 0.2 | 0.78 | < 0.025 | 6.25 | 0.2 | C[C@@H](O)[C@H]1C(=O)N2C(C(=O)O)=C(S[C@@H]3CN[C@H](Cc4cn(C)[n+](CC(N)=O)c4)C3)[C@H](C)[C@H]12.[Cl-] |  |  |  |
| 0.28 | 3.13 | 0.2 | 1.56 | 0.05 | 3.13 | 0.39 | C[C@@H](O)[C@H]1C(=O)N2C(C(=O)O)=C(S[C@@H]3CN[C@H](Cc4cn(C)[n+](C)c4)C3)[C@H](C)[C@H]12.[Cl-] |  |  |  |
|  |  |  |  |  |  |  | CN[C@H](CC(C)C)C(=O)N[C@H]1C(=O)N[C@@H](CC(N)=O)C(=O)N[C@H]2C(=O)N[C@H]3C(=O)N[C@H](C(=O)N[C@H](C(=O)O)c4cc(O)cc(O)c4-c4cc3ccc4O)[C@H](O)c3ccc(c(Cl)c3)Oc3cc2cc(c3O[C@@H]2O[C@H](CO)[C@@H](O)[C@H](O)[C@H]2O[C@H]2C[C@](C)(N)[C@H](O)[C@H](C)O2)Oc2ccc(cc2Cl)[C@H]1O [VANCOMYCIN] | 2.73 |  |  |
| 0.32 | 3.13 | 0.1 | 0.78 | 0.05 | 25 | 0.39 | C[C@@H](O)[C@H]1C(=O)N2C(C(=O)O)=C(S[C@@H]3CN[C@H](Cc4c[n+](C)nn4C)C3)[C@H](C)[C@H]12.[Cl-] |  |  |  |
| 0.14 | 6.25 | 0.1 | 0.78 | 0.1 | 12.5 | 0.39 | C[C@@H](O)[C@H]1C(=O)N2C(C(=O)O)=C(S[C@@H]3CN[C@H](Cc4cn(C)[n+](CC(=O)O)c4)C3)[C@H](C)[C@H]12.[Cl-] |  |  |  |
| 0.28 | 3.13 | 0.2 | 0.78 | 0.1 | 25 | 0.39 | C[C@@H](O)[C@H]1C(=O)N2C(C(=O)O)=C(S[C@@H]3CN[C@H](Cc4c(CO)c[n+](C)n4C)C3)[C@H](C)[C@H]12.[Cl-] |  |  |  |
| 0.42 | 1.56 | 0.2 | 0.78 | 0.05 | 6.25 | 0.2 | C[C@@H](O)[C@H]1C(=O)N2C(C(=O)O)=C(S[C@@H]3CN[C@H](Cc4cc[n+](C)n4C)C3)[C@H](C)[C@H]12.[Cl-] |  |  |  |
| 0.21 | 3.13 | 0.1 |  |  |  |  | C[C@@H](O)[C@H]1C(=O)N2C(C(=O)O)=C(S[C@@H]3CN[C@H](Cc4cn5[n+](c4)CCC5)C3)[C@H](C)[C@H]12.[Cl-] |  |  |  |
| 0.24 | 6.25 | 0.39 | 1.56 | 0.05 | 6.25 | 0.39 | C[C@@H](O)[C@H]1C(=O)N2C(C(=O)O)=C(S[C@@H]3CN[C@H](Cc4cn(C)[n+](C)c4CO)C3)[C@H](C)[C@H]12.[Cl-] |  |  |  |
| 0.17 | 3.13 | 0.1 | 0.78 | 0.1 | 25 | 0.39 | C[C@@H](O)[C@H]1C(=O)N2C(C(=O)O)=C(S[C@@H]3CN[C@H](Cc4c[n+](CCO)nn4C)C3)[C@H](C)[C@H]12.[Cl-] |  |  |  |
|  | 6.25 | 0.1 |  |  |  |  | C[C@@H](O)[C@H]1C(=O)N2C(C(=O)O)=C(S[C@@H]3CN[C@H](Cc4cc(CO)[n+](C)n4C)C3)[C@H](C)[C@H]12.[Cl-] |  |  |  |
| 0.3 | 12.5 | 0.1 | 0.78 | 0.1 | 6.25 | 0.39 | C[C@@H](O)[C@H]1C(=O)N2C(C(=O)O)=C(S[C@@H]3CN[C@H](Cc4n(C)cc[n+]4C)C3)[C@H](C)[C@H]12.[Cl-] |  |  |  |
| 0.35 | 3.13 | 0.1 | 0.39 | < 0.025 | 6.25 | 0.1 | C[C@@H](O)[C@H]1C(=O)N2C(C(=O)O)=C(S[C@@H]3CN[C@H](Cc4cc[n+](CC(N)=O)n4C)C3)[C@H](C)[C@H]12.[Cl-] |  |  |  |
| 0.22 | 12.5 | 0.2 | 0.78 | 0.1 | 12.5 | 1.56 | C[C@@H](O)[C@H]1C(=O)N2C(C(=O)O)=C(S[C@@H]3CN[C@H](Cc4n(C)nc[n+]4C)C3)[C@H](C)[C@H]12.[Cl-] |  |  |  |
| 0.61 | 3.13 | 0.05 |  |  |  |  | C[C@@H](O)[C@H]1C(=O)N2C(C(=O)O)=C(S[C@@H]3CN[C@H](Cc4cc[n+](CC(=O)O)n4C)C3)[C@H](C)[C@H]12.[Cl-] |  |  |  |
|  |  |  |  |  |  |  | CC1(C)C[C@@H]1C(=O)N/C(=C\CCCCSC[C@H](N)C(=O)O)C(=O)O [CILASTATIN] |  | 7.88 |  |
| 0.27 | 1.56 | 0.2 | 0.78 | 0.05 | 6.25 | 0.2 | C[C@@H](O)[C@H]1C(=O)N2C(C(=O)O)=C(S[C@@H]3CN[C@H](Cc4c[n+](C)c(CO)n4C)C3)[C@H](C)[C@H]12.[Cl-] |  |  |  |
| 0.41 | 3.13 | 0.2 | 0.78 | 0.05 | 6.25 | 0.2 | C[C@@H](O)[C@H]1C(=O)N2C(C(=O)O)=C(S[C@@H]3CN[C@H](Cc4c[n+](C)cn4C)C3)[C@H](C)[C@H]12.[Cl-] |  |  |  |
|  |  |  |  |  |  |  | C[C@@H](O)[C@H]1C(=O)N2C(C(=O)O)=C(SCCNC=N)C[C@H]12 [IMIPENEM ANHYDROUS] |  |  | 7.02 |
| 0.2 | 1.56 | 0.39 | 1.56 | 0.05 | 12.5 | 0.39 | C[C@@H](O)[C@H]1C(=O)N2C(C(=O)O)=C(S[C@@H]3CN[C@H](Cc4cn(C)[n+](CCO)c4)C3)[C@H](C)[C@H]12.[Cl-] |  |  |  |

| Compound | DHP-I stability [1] | MIC (Pseudomonas aeruginosa [2]) [µg/mL] | MIC (Escherichia coli) [µg/mL] | MIC (Proteus vulgaris) [µg/mL] | MIC (Staphylococcus aureus [3]) [µg/mL] | MIC (Staphylococcus aureus [4]) [µg/mL] | MIC (Pseudomonas aeruginosa [5]) [µg/mL] | ED50 (Mus musculus [6]) [mg/kg] | ED50 (Mus musculus [7]) [mg/kg] | ED50 (Mus musculus [8]) [mg/kg] |
| --- | --- | --- | --- | --- | --- | --- | --- | --- | --- | --- |
| C[C@@H](O)[C@H]1C(=O)N2C(C(=O)[O-])=C(SC3Cn4cnc[n+]4C3)[C@H](C)[C@H]12 (stereo not given in full) [BIAPENEM] | 0.15 | 1.56 (≈ 4.45 µM) | 0.39 (≈ 1.11 µM) | 3.13 (≈ 8.93 µM) | 0.05 (≈ 0.143 µM) | 25 (≈ 71.3 µM) | 0.2 (≈ 0.571 µM) |  | 35.2 |  |
| C[C@@H](O)[C@H]1C(=O)N2C(C(=O)O)=C(S[C@@H]3CN[C@H](C(=O)N(C)C)C3)[C@H](C)[C@H]12 [MEROPENEM] | 1 | 1.56 (≈ 4.07 µM) | 0.025 (≈ 0.0652 µM) | 0.1 (≈ 0.261 µM) | 0.1 (≈ 0.261 µM) | 25 (≈ 65.2 µM) | 0.2 (≈ 0.522 µM) |  | 7.88 |  |
| C[C@@H](O)[C@H]1C(=O)N2C(C(=O)O)=C(S[C@@H]3CN[C@H](Cc4cc[n+](CCO)n4C)C3)[C@H](C)[C@H]12.[Cl-] | 0.26 | 6.25 | 0.2 | 1.56 | 0.05 | 6.25 | 0.2 | 5.45 |  |  |
